Our source for the IC50 values is the Kinase Knowledgebase extract (Sharma et al. 2016).

The IC50 is the concentration that gives 50% inhibition. Higher therefore signals a need for much substance.

The target of the experiment is EGFR (UniProt P00533).
EGFR, sequence (P00533 whole entry, looked up): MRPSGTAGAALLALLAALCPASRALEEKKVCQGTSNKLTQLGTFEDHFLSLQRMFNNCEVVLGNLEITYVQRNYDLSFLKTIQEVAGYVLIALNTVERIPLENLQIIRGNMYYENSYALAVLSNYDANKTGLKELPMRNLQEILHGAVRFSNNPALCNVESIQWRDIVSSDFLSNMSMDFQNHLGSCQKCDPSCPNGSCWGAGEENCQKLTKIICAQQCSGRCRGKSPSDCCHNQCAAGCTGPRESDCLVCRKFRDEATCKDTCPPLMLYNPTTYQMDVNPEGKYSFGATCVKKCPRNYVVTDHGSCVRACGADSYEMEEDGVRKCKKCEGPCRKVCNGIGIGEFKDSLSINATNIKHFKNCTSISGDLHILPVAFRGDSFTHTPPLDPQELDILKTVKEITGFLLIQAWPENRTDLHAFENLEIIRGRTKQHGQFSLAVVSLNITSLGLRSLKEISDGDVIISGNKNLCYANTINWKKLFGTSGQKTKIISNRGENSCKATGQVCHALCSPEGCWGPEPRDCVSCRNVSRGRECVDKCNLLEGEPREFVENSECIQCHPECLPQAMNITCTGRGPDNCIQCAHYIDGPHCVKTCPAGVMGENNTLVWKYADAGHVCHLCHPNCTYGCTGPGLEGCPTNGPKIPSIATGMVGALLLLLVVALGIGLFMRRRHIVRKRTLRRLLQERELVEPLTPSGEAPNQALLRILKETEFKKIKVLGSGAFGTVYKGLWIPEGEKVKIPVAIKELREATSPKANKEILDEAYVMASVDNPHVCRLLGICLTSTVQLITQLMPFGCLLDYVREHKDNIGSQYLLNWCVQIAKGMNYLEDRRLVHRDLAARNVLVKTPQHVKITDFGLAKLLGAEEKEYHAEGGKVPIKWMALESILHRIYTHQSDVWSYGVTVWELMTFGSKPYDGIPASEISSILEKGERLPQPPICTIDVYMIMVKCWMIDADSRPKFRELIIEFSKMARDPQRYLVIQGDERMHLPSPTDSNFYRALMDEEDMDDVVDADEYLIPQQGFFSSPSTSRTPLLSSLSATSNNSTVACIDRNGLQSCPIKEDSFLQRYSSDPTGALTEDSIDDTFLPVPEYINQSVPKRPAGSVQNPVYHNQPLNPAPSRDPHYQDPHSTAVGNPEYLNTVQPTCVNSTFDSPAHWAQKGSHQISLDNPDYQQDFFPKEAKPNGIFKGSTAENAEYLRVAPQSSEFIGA
As to `COc1cc2ncnc(Nc3cccc4ccccc34)c2cc1OC`, the IC50 is 10 nM.
To `COc1cc2ncnc(Nc3cc(Cl)c(Cl)c(Cl)c3)c2cc1OC` belongs 1000 nM; to `COc1ccc2ncnc(Nc3cc(OC)c(OC)c(OC)c3)c2c1`, 5000 nM; to `COc1cc2ncnc(N(C)c3ccccc3)c2cc1OC`, 200 nM.
Then `COc1cc2ncnc(Nc3ccc4ccccc4c3)c2cc1OC`, with 50 nM; and `Clc1cccc(Nc2ncnc3ccccc23)c1`, with 50 to 100 nM; and `COc1cccc(Sc2ncnc3cc(OC)c(OC)cc23)c1`, with 2000 nM.
`COc1cc2ncnc(Nc3ccccc3Cl)c2cc1OC` registered an IC50 of 50 nM. Against the preceding molecule, the IC50 is about 40-fold lower.
Then `COc1cc2ncnc(Nc3ccc(OC(C)C)cc3)c2cc1OC`, with 5000 nM; and `COc1cc2ncnc(Sc3cccc(Cl)c3)c2cc1OC`, with 100 nM.
Then `COc1cc2ncnc(NC3CCCCC3)c2cc1OC`, with < 1000 nM; and `COc1cc2ncnc(Nc3cccc(C#N)c3)c2cc1OC`, with 10000 nM.
To `COc1cc2ncnc(Cc3ccccc3)c2cc1OC` belongs ≤ 500 nM.
The molecule `COc1cccc(Nc2ncnc3cc(OC)c(OC)cc23)c1` gave an IC50 of 50 nM.
